Measured values published in patent publication US11225642B2, “Method for producing renal progenitor cells” (KYOTO UNIVERSITY, priority 2013, dated 2022).

What was measured:
[1] = system: OSR1-GFP & SIX2-tdTomato reporter human iPS cell line; assay: SIX2-positive cell induction method 2, SIX2-tdTomato-positive cell rate by flow cytometer; type: cell-based; details: stage 3 medium with 5 ng/ml TGFβ1 and 0.5 μM Dorsomorphin, 12 to 22 days
Method: The OSR1-GFP & SIX2-tdTomato reporter human iPS cell line obtained by the method in Example 1 was cultured in the manner described in stage 1 of induction method 1 to become confluent on 10-cm dishes using SNL cells as feeder cells. A CTK solution was added to dissociate the cells. After removal of the feeder cells, the dissociated cells were suspended in a DMEM/F12 medium containing 1 μM TTNPB (Sigma, T3757), 1 μM CHIR99021, 1% GlutaMAX (100×), 2% FBS, and 0.5% PenStrep. Then, the cell suspensions were transferred to a low cell binding plate (LOW CELL BIND 6 WELL DISH) such that each well contained one-third to one-sixth of the cell suspension obtained from the 10-cm dish, followed by suspension culture at 37° C. in a 5% CO2 atmosphere for 2 days.
The cell mass obtained at stage 1 was transferred to dishes coated with Matrigel or dishes coated with Synthemax (prepared in the manner described in stage 2 of induction method 1). The medium was exchanged with a DMEM/F12 medium containing 1 μM TTNPB, 0.1% 2-mercaptoethanol (1000×), 1% GlutaMAX (100×), 10% KnockOut SR, 0.1 mM MEM NEAA, and 0.5% PenStrep, followed by adhesion culture at 37° C. in a 5% CO2 atmosphere for 3 to 9 days. In this case, the medium was exchanged every 3 days with a medium having the same conditions.
The medium was removed from the cells obtained at stage 2. […]

[2] = system: OSR1-GFP & SIX2-tdTomato reporter human iPS cell line; assay: SIX2-positive cell induction method 1, SIX2-tdTomato-positive cell rate by flow cytometer; type: cell-based; details: induction method 1; stage 3 medium with 5 ng/ml TGFβ1 and 0.5 μM Dorsomorphin, 15 to 22 days
Method: The OSR1-GFP & SIX2-tdTomato reporter human iPS cell line obtained by the method in Example 1 was cultured at 37° C. in a 2-5% CO2 atmosphere to become confluent on 10-cm dishes containing a primate ES/iPS cell medium (ReproCELL) supplemented with 5 ng/ml bFGF (Wako) with the use of SNL cells (McMahon, A. P. and Bradley, A. (1990) Cell 62; 1073-1085) (the cells being treated with 15.5 μg/ml mitomycin (Kyowa Hakko Kirin Co., Ltd.) for 2 to 3 hours and seeded at a density of 3×10^5 cells/10-cm dish) as feeder cells. A CTK solution (2.5% Trypsin (Invitrogen), 1 mg/ml Collagenase IV (Invitrogen), 0.1 M CaCl2, 10 mL KnockOut SR (Invitrogen), and 29.5 mL H2O) was added to dissociate the cells. After removal of the feeder cells, the dissociated cells were suspended in a DMEM/F12 medium containing 1 μM CHIR99021 (Stemgent, 04-0004), 100 ng/ml Activin A (R&D Systems, 338-AC), 1% GlutaMAX (100×) (Invitrogen, 35050-061), 2% FBS (Hyclone), and 0.5% PenStrep (Invitrogen, 10565). Then, the cell suspensions were transferred to a low cell binding plate (LOW CELL BIND 6 WELL DISH (Nunc, 145383)) such that each well contained one-third to one-sixth of the cell suspension obtained from the 10-cm dish, followed by suspension culture at 37° C. in a 5% CO2 atmosphere for 2 days.
The cell mass obtained at stage 1 was transferred to a 24-well or 6-well dish coated with Matrigel (BD Matrigel Matrix Growth Factor Reduced (BD Biosciences, 356230) (the dish being coated with 0.2 mg/ml Matrigel in DMEM and treated at 37° C. for 30 minutes or at 4° C. overnight) or a 24-well or 6-well dish coated with Synthemax (Corning Synthemax II-SC Substrate (Corning, 3535XX1)) (the dish being coated with Synthemax diluted 40-fold with sterile water and treated at room temperature for 2 hours). The medium was exchanged with a DMEM/F12 medium containing 1 μM CHIR99021, 100 ng/ml BMP7 (Recombinant human BMP7 (R&D Systems, 3534-BP)), 0.1% 2-mercaptoethanol (1000×) (Invitrogen, 21985), 1% GlutaMAX (100×), 10% KnockOut SR (Invitrogen), 0.1 mM MEM NEAA (Invitrogen, 11140), and 0.5% PenStrep, followed by adhesion culture at 37° C. in a 5% CO2 atmosphere for 3 to 6 days. In the case of culture for 3 days or more, the medium was exchanged every 3 days with a medium having the same conditions.
The medium was removed from the cells obtained at stage 2. The cells were washed with PBS and then the medium was exchanged with a DMEM/F12 medium containing 5 ng/ml TGFβ1 (Peprotech, 100-21C), 0.5 μM Dorsomorphin (AMPK Inhibitor, Compound C (Merck, 171260)), 0.1% 2-mercaptoethanol (1000×), 1% GlutaMAX (100×), 10% KnockOut SR, 0.1 mM MEM NEAA, and 0.5% PenStrep, followed by suspension culture at 37° C. in a 5% CO2 atmosphere for 15 to 22 days. In this case, the medium was exchanged every 3 days with a medium having the same conditions.
At stage 3 of SIX2-positive cell induction method 1, Dorsomorphin was replaced with 100 ng/ml Noggin (Peprotech), 0.5 μM LDN193189 (Axon MedChem, 1509), or 0.5 μM DMH1 (Tocris, 4126) for differentiation induction in the aforementioned manner.
At stage 3 of SIX2-positive cell induction method 1, TGFβ1 was exchanged with 50 μM IDE1 (Tocris) or 50 μM IDE2 (Tocris) for differentiation induction in the aforementioned manner.
At stage 3 of SIX2-positive cell induction method 1, Dorsomorphin was replaced with 0.5 μM LDN193189, while TGFβ1 with 10 ng/ml TGFβ2 (Peprotech) or 10 ng/ml TGFβ3 (R&D), for differentiation induction in the aforementioned manner. As a result, the SIX2-positive cell rates were 8.6% and 9.3%, respectively (FIGS. 2G and 2H).

Compound	SIX2-tdTomato-positive cell rate [1] [%]	SIX2-tdTomato-positive cell rate [2] [%]
c1cc(-c2cnn3cc(-c4ccc(OCCN5CCCCC5)cc4)cnc23)ccn1 [Dorsomorphin, 6-[4-(2-piperidin-1-yl-ethoxy)phenyl]-3-pyridin-4-yl-pyrazolo[1,5-a]pyrimidine]	20.6±5.3	21.5±2.0
TGFβ1: TGFβ signaling activator protein (Peprotech)	20.6±5.3	21.5±2.0
